Patent publication US20080058405A1, “REPLICATING MELATONIN SIGNALING IN A FETUS, NEWBORN OR SUCKLING INFANT” (OREGON HEALTH & SCIENCE UNIVERSITY, priority 2006, published 2008)
Entries after “also recorded” stand apart in the source; their conditions may differ.

Key:
newborn infant = experiment: Manipulation of the sleep/wake circadian rhythm of a newborn infant by exogenous melatonin given orally to the nursing mother (suckled or pumped breast milk); assay type: in vivo, human
Description: The following log includes nighttime sleep data of the infant taking nothing else by mouth except thrush medication during about weeks 2-4. […] All melatonin used in this Example was an immediate-release formulation taken by the […] orally.
• Sunday (10 days post-partum, first day of exogenous melatonin administration in breast milk): • At 20:50 […] took 3 mg melatonin orally. At 21:20 breast-fed baby. […] Monday: • At 19:45, […] took 1.05 mg. […] Tuesday: • At 20:30, […] took 0.9 mg and fed at 9. […] Wednesday: • At 20:45, […] took 3 mg. […] Thursday. • […] took 3 mg at 20:45. […] Week 2 Sunday. • […] took 3 mg at 20:30 but ate immediately after. […] Tuesday: • […] took 3 mg at 20:30. […] Wednesday • […] took 3 mg at 20:30. […] Friday • […] took 3 mg at 20:30. […] Saturday: • […] took 3 mg at 20:30. […] Week 3 Sunday: • […] took 3 mg at 15:00. […] Monday • […] took 3 mg at 17:20. […] Tuesday: • […] took 3 mg at 17:00. […] Wednesday: • […] took 1.8 mg at 17:45. […] Thursday: • […] took 3 mg at 17:00. […] Friday: • […] took 3 mg at 20:30. […] Saturday: • […] took 2 mg at 19:15.

[1] = adults, orally-administered melatonin; cited from earlier work
[2] = same maternal dosing, infant fed by breast milk

Structure (SMILES): COc1ccc2[nH]cc(CCNC(C)=O)c2c1 [melatonin, N-acetyl-5-methoxytryptamine]
- infant sleep period after first feeding with exogenous melatonin in breast milk (newborn infant; 10 days post-partum, mother took 3 mg orally at 20:50, baby breast-fed at 21:20): slept between 22:00 and 04:00
- improvement of colic versus its worst (newborn infant; Week 5 Monday, parent took 3 mg at 17:00): about 40%
- sleep of mother and newborn (newborn infant; parent took 1.8-12 mg (usually 3 mg) in the evening, sometimes 1-2 mg in the middle of the night or 0.5 mg towards end of night, immediate-release, oral, infant fed by suckling or pumped breast milk): better sleep for both mother and newborn
- actual breast-feeding time during the night (newborn infant; [2]): no reduction
- development of the infant's independent ability to synchronize to the ambient light/dark cycle (newborn infant; [2]): appeared to accelerate development; also recorded: caused early synchronization
- evening/nighttime colic in the infant (newborn infant; [2]): less evening/nighttime colic
- weight gain in the baby (newborn infant; [2]): steady weight gain; also recorded: excellent on melatonin, better than before melatonin
- melatonin bioavailability [1]: 1-15%
